Literature values, collected in patent publication US9532968B1, “Fumarate compounds, pharmaceutical compositions thereof, and methods of use” (priority 2015, dated 2017).

Q: With COC(=O)/C=C/C(=O)OC [DMF, dimethylfumarate] as the molecule, how does the aqueous solubility read?
A: The aqueous solubility was “poor”.
